Laboratory results: patent EP4800013A1, “PARG INHIBITOR” (Shanghai Qilu Pharmaceutical Research and Development …, priority 2023, dated 2025)

Columns and labels:
PARG = target: T1, PARG (Homo sapiens, UniProt Q86W56); assay: Enzymatic inhibitory activity against PARG, HTRF assay; format: biochemical; conditions: HTRF; PARylated PARP1 protein as substrate; 60 minutes at room temperature; read-out: IC50 against PARG enzyme
T1 construct: made in house
Protocol: In this experiment, the enzymatic inhibitory activity of the compounds of the present disclosure against PARG was determined using an HTRF (homogeneous time-resolved fluorescence) assay.
HTRF assay reagents were purchased from PerkinElmer (Cat. Nos. 61HISTLB and 610SAXLB). The purified protein was prepared in-house.
PARG enzyme reaction buffer: 50 mM Tris (pH 7.4), 0.1 mg/mL BSA, 3 mM EDTA, 0.4 mM EGTA, 1 mM DTT, 50 mM KCl, and 0.01% Tween 20.
• 1) Using an ultra-micro pipette, the compounds of the present disclosure were serially diluted (starting at 10 µM with 3- to 5-fold serial dilutions) and added to a 384-well reaction plate, with each concentration tested in duplicate wells. Control group 1 was added with 10 µM control compound (100% inhibition group). Control group 2 was added with DMSO (0% inhibition group). After compound addition, the 384-well plate was centrifuged at 1000 rpm for 1 minute. • 2) 2.5 µL of PARG protein was added to each well and incubated with the compounds of the present disclosure at room temperature for 15 minutes, followed by centrifugation at 1000 rpm for 1 minute. • 3) 2.5 µL of PARylated PARP1 protein was added to each well and incubated at room temperature for 60 minutes, followed by centrifugation at 1000 rpm for 1 minute. • 4) 5 µL of His-Tb & SA-XL665 HTRF assay reagents were added to each well and incubated at room temperature for 60 minutes, followed by centrifugation at 1000 rpm for 1 minute. • 5) […] were measured using a PHERAstar FSX microplate reader from BMG. • 6) Data analysis was performed using GraphPad Prism 8. The IC50 values of the compounds of the present disclosure were calculated as follows. […] The average value of duplicate wells in control group 2 (0% inhibition group) was set as the relative inhibition rate of 0%. The HTRF signal values were converted into relative inhibition rates. The IC50 values of the compounds were calculated by fitting the data to a four-parameter logistic model. Table 15: Enzymatic inhibitory activity of the compounds of the present disclosure against PARG

KURAMOCHI cells = assay: Inhibition of proliferation of KURAMOCHI cells (CellTiter-Glo, intracellular ATP); format: cell-based; conditions: 168 h, incubated for 7 days, read-out: IC50 against KURAMOCHI cells
Protocol: In this experiment, the inhibitory effect of the compounds of the present disclosure on the proliferation of the cancer cell line KURAMOCHI was evaluated by measuring intracellular ATP levels using a bioluminescent assay, and the half maximal inhibitory concentration (IC50) was determined.
RPMI 1640 medium (Cat. No. 11875-093), fetal bovine serum (10099-141), and 100× Pen/Strep (15070-063) were purchased from GIBCO. CellTiter-Glo Luminescent Cell Viability Assay reagent (Cat. No. G7573) was purchased from Promega.
• 1) Day 1: KURAMOCHI cells were counted using a cell counter and seeded into a 96-well culture plate at a density of 4000 cells per well in 100 µL medium. The plate was incubated overnight in an incubator (37°C, 5% CO2). • 2) Day 2: Using a D300e digital dispenser (TECAN), 500 nL of serially diluted test compounds of the present disclosure (starting at 10 µM, a total of 9 concentrations, 1:4 dilution) were added to the cells in the culture plate. The final concentration of DMSO was 0.5%. The cell culture plate was incubated for 7 days in a cell culture incubator (37°C, 5% CO2). Control group 1 received only medium and DMSO (100% inhibition group). Control group 2 received only DMSO (0% inhibition group). The final concentration of DMSO in both groups was 0.5%. • 3) Day 9: 100 µL of CellTiter-Glo reagent was added to each well. The plate was shaken at 500 rpm for 2 minutes, centrifuged at 1000 rpm for 1 minute, and then incubated at room temperature in the dark for 10 minutes to stabilize the luminescence signal. • 4) Luminescence signals were measured using an EnVision microplate reader (PerkinElmer). • 5) Data analysis was performed using GraphPad Prism 8. The IC50 values of the compounds of the present disclosure were calculated as follows. The CTG signal values were analyzed. The average inhibition rate of control group 1 (100% inhibition group) was set as the relative inhibition rate of 100%. The average inhibition rate of control group 2 (0% inhibition group) was set as the relative inhibition rate of 0%. The CTG signal values were converted into relative inhibition rates. The inhibition percentage (inhibition%) for each concentration of the compounds of the present disclosure was calculated according to the following formula: Inhibition% = (b−x)/(b−a)*100%; [formula] • a = CTG value (highest concentration), b = CTG value (blank well), x = CTG value (test well). • IC50 was calculated using GraphPad Prism 8. • (1) The concentration and inhibition rate corresponding to each well were recorded. Statistical calculation was performed using Log10 (compound concentration). • (2) The data were input into GraphPad Prism 8 and Analysis was selected. • (3) Nonlinear regression (curve fit) was selected. • (4) Log (inhibitor) vs. response - Variable slope was selected. • (5) The calculation formula was selected, and the calculation was performed according to the following formula: Y = Bottom + (Top - Bottom) / (1 + 10 ^ ((LogIC50 - X) * HillSlope)); X: log of dose or concentration; Y: response; Top and Bottom: maximum and minimum response. • (6) The IC50 values were calculated by fitting the data. Table 16: Inhibitory effect of the compounds of the present disclosure on the proliferation of KURAMOCHI cells

T1 sequence (Q86W56 whole entry): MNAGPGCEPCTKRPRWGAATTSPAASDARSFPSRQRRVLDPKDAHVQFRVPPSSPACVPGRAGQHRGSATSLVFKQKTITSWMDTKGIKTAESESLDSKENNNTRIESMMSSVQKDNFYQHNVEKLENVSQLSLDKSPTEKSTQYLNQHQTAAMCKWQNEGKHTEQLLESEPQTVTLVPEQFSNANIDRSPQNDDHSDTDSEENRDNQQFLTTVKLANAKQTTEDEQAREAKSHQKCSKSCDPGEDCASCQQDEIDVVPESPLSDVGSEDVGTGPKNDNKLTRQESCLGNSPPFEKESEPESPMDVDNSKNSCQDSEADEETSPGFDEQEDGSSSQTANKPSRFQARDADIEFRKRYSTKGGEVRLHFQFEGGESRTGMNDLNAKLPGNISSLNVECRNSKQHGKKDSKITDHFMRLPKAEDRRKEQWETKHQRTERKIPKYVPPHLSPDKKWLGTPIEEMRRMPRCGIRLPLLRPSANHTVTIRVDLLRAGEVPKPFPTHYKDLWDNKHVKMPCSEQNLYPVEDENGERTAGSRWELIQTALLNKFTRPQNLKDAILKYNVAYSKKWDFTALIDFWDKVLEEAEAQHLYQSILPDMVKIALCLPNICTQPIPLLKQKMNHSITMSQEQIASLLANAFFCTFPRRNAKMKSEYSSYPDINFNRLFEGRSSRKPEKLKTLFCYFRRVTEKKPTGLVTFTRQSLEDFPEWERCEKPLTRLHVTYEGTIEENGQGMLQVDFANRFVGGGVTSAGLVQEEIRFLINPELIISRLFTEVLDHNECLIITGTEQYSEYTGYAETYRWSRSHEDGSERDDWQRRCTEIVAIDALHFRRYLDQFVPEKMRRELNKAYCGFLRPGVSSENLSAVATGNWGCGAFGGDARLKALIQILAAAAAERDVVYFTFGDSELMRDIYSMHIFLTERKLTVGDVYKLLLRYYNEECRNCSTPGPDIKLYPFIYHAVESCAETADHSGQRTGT

Row | SMILES | IC50 (PARG) [nM] | IC50 (KURAMOCHI cells) [nM]
1 | C[C@H]1CN(c2cc(S(=O)(=O)NC3(C)CC3)cc3c2nnn3-c2nnc(C(F)F)s2)C[C@H](C)N1 [Compound 008B] | 9.6 | 9
2 | C[C@H]1CN(c2cc(S(=O)(=O)NC3(C)CC3)cc3c(-c4nnc(C(F)F)s4)noc23)C[C@H](C)N1 [Compound 021B] |  | 11
3 | CC(C)S(=O)(=O)N1CCN(c2cc(S(=O)(=O)NC3(C#N)CC3)cc3c2nc(OC2CC2)n3-c2nnc(C(F)F)s2)CC1 [Compound 057P] | 29.3 | 
4 | C=CCn1c(=O)n(-c2nnc(C(F)F)s2)c2cc(S(=O)(=O)NC3(C#N)CC3)cc(N3CCN(c4ncc[nH]4)CC3)c21 [Compound 067JD] | 31.6 | 
5 | C=CCn1c(=O)n(-c2nnc(C(F)F)s2)c2cc(S(=O)(=O)NC3(C#N)CC3)cc(N3CCN(C(=O)NC)CC3)c21 [Compound 067M] | 29 | 
6 | C=CCn1c(=O)n(-c2nnc(C(F)F)s2)c2cc(S(=O)(=O)NC3(C#N)CC3)cc(N3CCN(C(=O)C(C)C)[C@H](C)C3)c21 [Compound 069D] | 23.5 | 
7 | C=CCn1c(=O)n(-c2nnc(C(F)F)s2)c2cc(S(=O)(=O)NC3(C#N)CC3)cc(N3CC4CC3CN4S(=O)(=O)C(C)C)c21 (centres unmarked) [Compound 069E] |  | 55
8 | C=CCn1c(=O)n(-c2nnc(C(F)F)s2)c2cc(S(=O)(=O)NC3(C#N)CC3)cc(N3CCN(C(=O)C4CC(F)(F)C4)CC3)c21 [Compound 072D] |  | 52
9 | CC(C)C(=O)N1CCN(c2cc(S(=O)(=O)NC3(C#N)CC3)cc3c2n(CC#N)c(=O)n3-c2nnc(C(F)F)s2)CC1 [Compound 074J] | 10.8 | 
10 | C=CCn1c(=O)n(-c2nnc(C(F)F)s2)c2cc(S(=O)(=O)NC3(C#N)CC3)cc(N3CCN(S(=O)(=O)c4ccn(C)n4)CC3)c21 [Compound 075B] | 35.7 | 
11 | C=CCn1c(=O)n(-c2nnc(C(F)F)s2)c2cc(S(=O)(=O)NC3(C#N)CC3)cc(N3CCN(C(=O)C(C)(C)NC(=O)OC)CC3)c21 [Compound 076A] | 13 | 
12 | C=CCn1c(=O)n(-c2nnc(C(F)F)s2)c2cc(S(=O)(=O)NC3(C#N)CC3)cc(N3CCN(C(=O)C4(C)CCCN4)CC3)c21 (centres unmarked) [Compound 076B] | 9.7 | 
13 | C=CCn1c(=O)n(-c2nnc(C(F)F)s2)c2cc(S(=O)(=O)NC3(C#N)CC3)cc(N3CCN(C(=O)C4CCCN4)CC3)c21 (centres unmarked) [Compound 076C] | 8.6 | 
14 | C=CCn1c(=O)n(-c2nnc(C(F)F)s2)c2cc(S(=O)(=O)NC3(C#N)CC3)cc(N3CCN(C(=O)C4CCCN4C)CC3)c21 (centres unmarked) [Compound 076D] | 14.7 | 
15 | C=CCn1c(=O)n(-c2nnc(C(F)F)s2)c2cc(S(=O)(=O)NC3(C#N)CC3)cc(N3CCN(C(=O)[C@@H]4CCC5(CC5)N4)CC3)c21 [Compound 076F1] | 30.6 | 
16 | C=CCn1c(=O)n(-c2nnc(C(F)F)s2)c2cc(S(=O)(=O)NC3(C#N)CC3)cc(N3CCN(C(=O)C4CCC(=O)N4)CC3)c21 (centres unmarked) [Compound 076G] | 9 | 
17 | C[C@H]1CN(c2cc(S(=O)(=O)NC3(C#N)CC3)cc3c2nc(C2CCCO2)n3-c2nnc(C(F)F)s2)C[C@H](C)N1 (some centres unmarked) [Compound 077J] | 10.4 | 
18 | C[C@H]1CN(c2cc(S(=O)(=O)NC3(C)COC3)cc3c2nc(C2CCCO2)n3-c2nnc(C(F)F)s2)C[C@H](C)N1 (some centres unmarked) [Compound 077K] | 12.8 | 
19 | C[C@H]1CN(c2cc(S(=O)(=O)NC3(C)CC3)cc3c2nc(-c2nccs2)n3-c2nnc(C(F)F)s2)C[C@H](C)N1 [Compound 077S] |  | 58

Row | SMILES | IC50 (PARG) [nM] | IC50 (KURAMOCHI cells) [nM]
20 | C[C@H]1CN(c2cc(S(=O)(=O)NC3(C)CC3)cc3c2nc(C2CNCCO2)n3-c2nnc(C(F)F)s2)C[C@H](C)N1 (some centres unmarked) [Compound 077Y] | 10.3 | 
21 | C=CC1CN(c2cc(S(=O)(=O)NC3(C)CC3)cc3c2cnn3-c2nnc(C(F)F)s2)C[C@H](C)N1 (some centres unmarked) [Compound 078A] |  | 30
22 | C#CC1CN(c2cc(S(=O)(=O)NC3(C)CC3)cc3c2cnn3-c2nnc(C(F)F)s2)C[C@H](C)N1 (some centres unmarked) [Compound 078B] |  | 34
23 | C=C[C@H]1CN(c2cc(S(=O)(=O)NC3(C)CC3)cc3c2cnn3-c2nnc(C(F)F)s2)C[C@H](C=C)N1 [Compound 078C] |  | 15
24 | C[C@H]1CN(c2cc(S(=O)(=O)NC3(C)CC3)cc3c2nc([C@@H]2CC4(CC4)CO2)n3-c2nnc(C(F)F)s2)C[C@H](C)N1 [Compound 079M2] | 1.9 | 
25 | C[C@H]1CN(c2cc(S(=O)(=O)NC3(C)CC3)cc3c2nc(C2CCOC2)n3-c2nnc(C(F)F)s2)C[C@H](C)N1 (some centres unmarked) [Compound 079N] | 6.2 | 
26 | C[C@H]1CN(c2cc(S(=O)(=O)NC3(C)CC3)cc3c2cc(N=S(C)(C)=O)n3-c2nnc(C(F)F)s2)C[C@H](C)N1 [Compound 082E] | 5.5 | 
27 | CN(C)C(=O)N1CCN(c2cc(S(=O)(=O)NC3(C#N)CC3)cc3c2n(CC(F)(F)F)c(=O)n3-c2nnc(C(F)F)s2)CC1 [Compound A044] | 7 | 
28 | C=CCn1c(=O)n(-c2nnc(C(F)F)s2)c2cc(S(=O)(=O)NC3(C#N)CC3)cc(N3CCN(C(=O)NC4CC4)CC3)c21 [Compound A054] | 38.6 | 
29 | CC(C)C(=O)N1CCN(c2cc(S(=O)(=O)NC3(C#N)CC3)cc3c2n(C2CC2)c(=O)n3-c2nnc(C(F)F)s2)CC1 [Compound A055] | 11.9 | 
30 | CC(C)S(=O)(=O)N1CCN(c2cc(S(=O)(=O)NC3(C#N)CC3)cc3c2n(C2CC2)c(=O)n3-c2nnc(C(F)F)s2)CC1 [Compound A056] | 5.2 | 
31 | C[C@H]1CN(c2cc(S(=O)(=O)NC3(C)CC3)cc3c2ncn3-c2nnc(C(F)F)s2)C[C@H](C)N1 [Compound B004] | 15.6 | 
32 | C[C@H]1CN(c2cc(S(=O)(=O)NC3(C)CC3)cc3c2ncn3-c2nnc(C(F)F)s2)C[C@H](C)N1C(=O)N(C)C [Compound B005] | 11.5 | 
33 | CC(C)(O)C(=O)N1CCN(c2cc(S(=O)(=O)NC3(C#N)CC3)cc3c2ncn3-c2nnc(C(F)F)s2)CC1 [Compound B015] | 15.8 | 
34 | CN(C)C(=O)N1CC=C(c2cc(S(=O)(=O)NC3(C#N)CC3)cc3c2ncn3-c2nnc(C(F)F)s2)CC1 [Compound B022] | 18.7 | 
35 | CC(C)C(=O)N1CC=C(c2cc(S(=O)(=O)NC3(C#N)CC3)cc3c2ncn3-c2nnc(C(F)F)s2)CC1 [Compound B023] | 16.7 | 
36 | C[C@H]1CN(c2cc(S(=O)(=O)NC3(C)CC3)cc3c2n2ccnc2n3-c2nnc(C(F)F)s2)C[C@H](C)N1 [Compound B024] | 16.5 | 
37 | C[C@H]1CN(c2cc(S(=O)(=O)NC3(C)CC3)cc3c2c2nccnc2n3-c2nnc(C(F)F)s2)C[C@H](C)N1 [Compound H001] | 1.1 | 
